Data reported in the NIST ThermoML archive (doi:10.1021/je800894y).

Conditions: Liquid; for viscosity: Vibrating wire viscometry; for mass density: vibrating-wire apparatus

CC(C)CCCC(C)CCCC(C)CCCCC(C)CCCC(C)CCCC(C)C (centres undefined) [2,6,10,15,19,23-hexamethyltetracosane]
Conditions | mass density [kg/m3] | viscosity [mPa·s]
303.18 K, 1070 kPa | 802 | 22
303.18 K, 5300 kPa | 803.5 | 24.2
303.18 K, 5740 kPa | 804.4 | 24.4
303.18 K, 15580 kPa | 806.9 | 30.3
303.18 K, 25530 kPa | 813.9 | 36.9
303.18 K, 35790 kPa | 826.5 | 44.3
303.18 K, 45770 kPa | 825.1 | 54.6
303.18 K, 55770 kPa | 825.9 | 66.3
348.13 K, 5270 kPa | 776.9 | 5.59
348.13 K, 5290 kPa | 777 | 5.6
348.13 K, 25490 kPa | 790.6 | 7.79
348.13 K, 56280 kPa | 807.7 | 12.3
348.13 K, 85860 kPa | 821.2 | 18.4
348.13 K, 115830 kPa | 832.6 | 26.9
348.13 K, 145930 kPa | 844.3 | 38.7
348.13 K, 175120 kPa | 843.2 | 55.6
398.15 K, 5160 kPa | 746.3 | 2.17
398.15 K, 5230 kPa | 746.4 | 2.17
398.15 K, 25310 kPa | 763.3 | 2.89
398.15 K, 56100 kPa | 783.5 | 4.24
398.15 K, 85890 kPa | 799.5 | 5.88
398.15 K, 115450 kPa | 812.6 | 7.93
398.15 K, 145820 kPa | 824.7 | 10.6
398.15 K, 176100 kPa | 835.4 | 13.8
448.25 K, 5580 kPa | 716.3 | 1.17
448.25 K, 5730 kPa | 716.5 | 1.18
448.25 K, 25470 kPa | 736.8 | 1.54
448.25 K, 55510 kPa | 759.9 | 2.17
448.25 K, 85620 kPa | 778.7 | 2.89
448.25 K, 115510 kPa | 793.3 | 3.76
448.25 K, 145580 kPa | 806.4 | 4.78
448.25 K, 176050 kPa | 818.2 | 5.99
